These results are taken from patent publication US9321750B2, “ROR modulators and their uses” (INNOV17 LLC, priority 2012, dated 2016).

The nature of data set [1]: TH17 cell viability (Prestoblue). In kind it is cell-based. More on the design: concentration or dose not given beside the values. The settings on record: human; percentage of DMSO treated cells; read-out: % viability of compound treated TH17 cells. On the procedure: (§1) Peripheral blood mononuclear cells (PBMCs) were sourced from freshly prepared leukocyte enriched plasma (buffy coat) from healthy volunteers from which PBMCs were isolated by density gradient centrifugation using Ficoll-Paque™ PLUS (GE Healthcare). Naïve CD4+ T cells were isolated using the Naïve CD4+ T cell Isolation Kit II (Miltenyi Biotec) as per manufacturer's instructions. CD4+ T cells were plated at 5×10^4 cells/well in 96 well plates pre-coated with immobilized human (h)-αCD3 antibody (eBioscience) then differentiated to TH17 cells using h-αCD28, h-αIFNγ, h-αIL4, h-IL6, h-IL23, h-IL1β, h-TGFβ1 (eBioscience) and maintained in a cell culture incubator at 37° C. with 5% CO2 in TexMACS Medium (Miltenyi Biotec) supplemented with 1% Penicillin/Streptomycin (Lonza) over 5 days.
Cells were assayed for viability in the presence or absence of compound using Prestoblue® Cell Viability Reagent (Life Technologies) as per manufacturer's instructions after 30 minutes incubation of TH17 cells with reagent. Absorbance was measured at 570 nm and 600 nm using a microplate reader (Perkin Elmer) and data were analyzed as per manufacturer's instructions. Cell viability was expressed as a percentage of DMSO treated cells.

The target of data set [2] is T1, RORα LBD (Homo sapiens (Human), UniProt P35398). Nature of the data set: TR-FRET co-activator D22 interaction with RORα LBD. In kind it is biochemical. The text has this:
(§2) The Time-Resolved Fluorescence Resonance Energy Transfer (TR-FRET) assay kit (Life Technologies) was used to measure compound efficacy to disrupt or enhance ligand-mediated interaction of the co-activator and co-repressor peptides with the purified GST-tagged (i) RORγ LBD or (ii) […]. The RORγ LBD and RORα LBD each have a basal level of interaction with the co-activator D22 or co-repressor NCoR1-D2 in the absence of ligand, thus it is possible to identify compounds that inhibit or induce RORγ and/or RORα co-activator/co-repressor interactions, thus determining RORα, RORγ, or RORα/RORγ compound selectivity. The assay was performed as per manufacturer's instructions and TR-FRET was assessed 2 and 20 hours post-assay initiation. Compounds were identified to (i) have no impact on either co-activator displacement or […] from the assessed LBD (ii) promote co-activator displacement from the assessed LBD (iii) promote co-repressor recruitment to the assessed LBD or (iv) concurrently promote co-activator displacement from the assessed LBD and co-repressor recruitment to the assessed LBD.

Data set [3] has as its target T2, RORγ LBD (Homo sapiens (Human), UniProt P51449). Nature of the data set: TR-FRET co-activator D22 interaction with RORγ LBD. The format is biochemical.
Source text: as §2
A general note: In TR-FRET formats the signal depends on donor and acceptor labels being close together.

Data set [4] concerns the target T2, RORγ LBD. Nature of the data set: RORγ LBD binding (Human RORγ Assay System, INDIGO Biosciences). The note with it: 0.5% DMSO. As to the method:
Compound binding to the human RORγ LBD was assessed using the Human RORγ Assay System (INDIGO Biosciences Inc.) as per manufacturer's instructions.

Data set [5] deals with TH17 cells. Nature of the data set: TH17 cellular proliferation (Prestoblue). The format is cell-based. The note with it: Homo sapiens, 120 h; 3 μM compound, after 5 day TH17 differentiation, relative to DMSO treated TH17 cells; read-out: % change in TH17 cell number. On the procedure: as §1
Cellular proliferation was assessed in the presence or absence of 3 μM compound using Prestoblue® Cell Viability Reagent (Life Technologies) as per manufacturer's instructions using absorbance as the output measured by a microplate reader (Perkin Elmer) after 30 minutes of incubation of cells and reagent. A standard curve developed by plotting varying cell numbers versus absorbance was used to assess differences in cellular proliferation between compound treated or untreated cells after the 5 day TH17 differentiation period.

Data set [6] concerns IL-17A. Nature of the data set: TH17 cytokine inhibition as measured by ELISA: IL-17A. The format is cell-based. The settings on record: 120 h; human TH17 cells, 5 days differentiation, ELISA of supernatant. On the procedure:
as §1
(§3) Human CD4+ T cells were differentiated to TH17 cells as described in the presence or absence of various concentrations of compounds in a final concentration of 0.1% DMSO in TexMACS medium. Supernatants were collected and stored at −20° C. until they were to be assayed for IL-17A, IL-17F, IL-17AF, IL-21 and/or IL-22 levels as determined by Ready-Set-Go ELISA kits (eBioscience) as per manufacturer's instructions. Endpoint absorbance was read at 450 nm and 570 nm according to manufacturer's instructions (eBioscience) using a microplate reader (Perkin Elmer). The percentage of cytokine inhibition was calculated with reference to DMSO treated cells and the IC50s were determined by GraphPad Prism software and presented in the table below.
(In general: An ELISA detects its analyte on a solid surface through an enzyme-linked reagent.)

The target in data set [7] is T1, RORα LBD. Nature of the data set: TR-FRET co-repressor NCoR1-D2 interaction with RORα LBD. The format is biochemical.
Source text: as §2

The subject of data set [8] is IL-17AF. Nature of the data set: TH17 cytokine inhibition as measured by ELISA: IL-17AF. The format is cell-based. The settings on record: 120 h; human TH17 cells, 5 days differentiation, ELISA of supernatant. On the procedure:
as §1, §3

Data set [9] concerns IL-17F. Nature of the data set: TH17 cytokine inhibition as measured by ELISA: IL-17F. The format is cell-based. The settings on record: 120 h; human TH17 cells, 5 days differentiation, ELISA of supernatant. On the procedure: as §1, §3
Data set [10] addresses T2, RORγ LBD. Nature of the data set: TR-FRET co-repressor NCoR1-D2 interaction with RORγ LBD. The format is biochemical.
Source text: as §2

The structures appear in SMILES notation.

One may read the viability as a per cent measure of how many cells are alive, often set against a control. In general, EC50 refers to the concentration giving half of the maximal effect. The term IC50 denotes the point on the concentration scale where inhibition reaches its midpoint.

T1 sequence (P35398 272-510): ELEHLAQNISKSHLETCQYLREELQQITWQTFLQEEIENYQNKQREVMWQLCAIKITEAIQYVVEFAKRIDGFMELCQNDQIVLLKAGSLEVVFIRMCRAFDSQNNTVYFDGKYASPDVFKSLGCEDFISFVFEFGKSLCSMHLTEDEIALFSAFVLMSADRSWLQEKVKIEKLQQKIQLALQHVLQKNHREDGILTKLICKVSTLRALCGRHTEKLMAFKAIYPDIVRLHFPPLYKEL
T2 sequence (P51449 269-508): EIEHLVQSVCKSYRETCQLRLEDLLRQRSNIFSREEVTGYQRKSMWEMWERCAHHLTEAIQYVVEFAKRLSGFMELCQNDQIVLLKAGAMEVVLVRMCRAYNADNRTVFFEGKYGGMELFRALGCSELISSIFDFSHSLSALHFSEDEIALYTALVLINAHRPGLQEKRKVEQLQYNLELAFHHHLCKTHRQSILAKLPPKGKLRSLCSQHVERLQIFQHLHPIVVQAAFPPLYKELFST

Turning to `CC(=O)Nc1ccc2c(c1)CCC(=O)N2Cc1ccc(C(O)(C(F)(F)F)C(F)(F)F)cc1` [Example 3, N-(1-(4-(1,1,1,3,3,3-hexafluoro-2-hydroxypropan-2-yl)benzyl)-2-oxo-1,2,3,4-tetrahydroquinolin-6-yl)acetamide], the viability in data set [1] was > 80%. Moreover, the 50% effective concentration (EC50) was > 30 µM in data set [2] (2 hr, read-out: RORα EC50 D22 co-activator displacement 2 hr); > 30 µM in data set [2] (20 hr, read-out: RORα EC50 D22 co-activator displacement 20 hr); > 30 µM in data set [3] (2 hr, read-out: RORγ EC50 D22 co-activator displacement 2 hr); < 30 µM in data set [3] (20 hr, read-out: RORγ EC50 D22 co-activator displacement 20 hr); > 30 µM in data set [7] (2 hr, read-out: RORα EC50 NCoR1-D2 co-repressor recruitment 2 hr); > 30 µM in data set [7] (20 hr, read-out: RORα EC50 NCoR1-D2 co-repressor recruitment 20 hr). Also, the concentration for a half-maximal effect (EC50) in data set [10] (2 hr, read-out: RORγ EC50 NCoR1-D2 co-repressor recruitment 2 hr) is > 30 µM; in data set [10] (20 hr, read-out: RORγ EC50 NCoR1-D2 co-repressor recruitment 20 hr), < 30 µM. For the same compound, the IC50 in [4] was > 10 µM; in data set [6] it was < 10 µM; in data set [8], > 10 µM; in data set [9], < 10 µM. Also, the inhibition at 3 µM in [5] is ≤ 50%.
